Assay results taken from patent US4472413A, “9'-Azabicyclo [3.3.1] nonyl benzamide” (Beecham Group p.l.c., priority 1981, dated 1984).

Test system: post-synaptic Dopamine (D.A.) receptors
Assay: Inhibition of apomorphine induced climbing in the mouse
Assay type: in vivo
Conditions: po, 4 hour post dosing; apomorphine 1 mg/kg subcutaneous; male CD1 mice
Protocol: The results in the following table are an illustration of the anti-psychotic activity of the present compounds as shown by Inhibition of Apormorphine Induced Climbing in the Mouse, a standard test.
Inhibition of apomorphine induced climbing in the mouse
The test is based on that described by Protais, P., Constantin, J. and Schwartz J. C. (1976), Psychopharmacology, 50, 1-6.
When mice are given a dose of 1 mg/kg apomorphine and then placed in an enclosed environment, such as an inverted wire cage, they are seen to climb around the walls. This behavioural phenomenon is thought to be a consequence of the stimulation of post-synaptic Dopamine (D.A.) receptors in the nucleus accumbens. Inhibition of apomorphine induced climbing is therefore indicative of post-synaptic D.A. receptor blockage in the accumbens.
Groups of 10 male CD1 mice, weighing 25-30 g were pre-treated orally with either graded doses of the test compound or vehicle, at appropriate time intervals before the subcutaneous administration of a sub-maximal dose of apomorphine (1 mg/kg). Immediately after the apomorphine injection the mice were placed in wire `climbing cages` and each animal was scored for climbing behaviour at 10 and 20 minutes post apomorphine as follows:
Four paws on cage floor=0
The total score was calculated for each group of mice and expressed as a percentage inhibition of climbing. [formula]
ED50's and fiducial limits were calculated according to the method of Litchfield and Wilcoxon, the ED50 being the dose that produced a 50% inhibition of apomorphine-induced climbing.

With `COc1cc(N)c(Cl)cc1C(=O)N[C@@H]1C[C@H]2CCC[C@@H](C1)N2Cc1ccc(C)cc1` [Example 3B, 4-Amino-5-chloro-2-methoxy-N-{3'β[9'-(4-methylbenzyl)-9'-azabicyclo[3.3.1]-nonyl]}-benzamide] the “ED50 (dose that produced a 50% inhibition of apomorphine-induced climbing)” value was 0.07 mg/kg.

`COc1cc(N)c(Cl)cc1C(=O)N[C@@H]1C[C@H]2CCC[C@@H](C1)N2Cc1ccc(F)cc1` [Example 1B, 4-Amino-5-chloro-2-methoxy-N-{3'β-[9'-(4-fluorobenzyl)-9'-azabicyclo[3.3.1]-nonyl]}-benzamide] was tested, and the “ED50 (dose that produced a 50% inhibition of apomorphine-induced climbing)” value was 0.008 mg/kg.

With `COc1cc(N)c(Cl)cc1C(=O)N[C@@H]1C[C@H]2CCC[C@@H](C1)N2Cc1ccc(Cl)cc1` [Example 2B] the “ED50 (dose that produced a 50% inhibition of apomorphine-induced climbing)” value was 0.027 mg/kg.
